Test: stability of the AlF-18 complexes by incubation in human serum
Format: in vitro ADME
Procedure: The reactions for labelling with [AlF-18]^2+ were carried out at various pH (between 4 and 6.5) and at various temperatures (25, 37 and 80°). The preparation of [AlF-18]^2+ and the subsequent labelling with the chelating agents covered by the present patent were carried out according to the procedure cited by Bormans and colleagues (Nature Prot. 2018, 13, 2330-2347). The labeled products were purified using Sep-Pak Alumina N Plus Light cartridges and eluted with a 0.9% NaCl solution. All of the products were analyzed by means of radio-TLC and radio-HPLC and the stability of the tracers was studied at 10, 30, 60, 120 and 240 minutes by means of incubation in […] different solutions: human serum, PBS, EDTA 5 mM and 0.9% NaCl solutions.
An additional advantage is the stability in human serum detected for the compounds of the present invention. An increased stability in human serum was measured for the chelating agent 2-AMPDA-HB, with 90% of AlF-18 still complexed after 120 minutes, whereas the complexed percentage was 55% for the chelating agent 2-AMPTA.

O=C(O)CN(CC(=O)O)CC1CCCCN1CC(=O)O (centres unmarked) [2-AMPTA]
AlF-18 still complexed in human serum (after 120 minutes): 55% | stability of the AlF-18 complexes in human serum (after 240 minutes): 33%

Source: patent publication US12378199B2, “Rigidified pentadentate chelating agents useful for the [Al18F]2+ labelling of biomolecules” (UNIVERSITÀ DEGLI STUDI DEL PIEMONTE ORIENTALE “A. AVOGADRO”, priority 2019, dated 2025)
